# Assay results taken from patent US12522587B2, “Cancer treatments targeting cancer stem cells” (Remedy Plan, Inc., priority 2018, dated 2026).
# How the values were obtained:
# [1] = system: oct4; test: RT-qPCR of oct4 RNA in AGS cells; assay type: cell-based, human; conditions: 10 μM, 4 days, FIG. 2
# Description: (§1) Approximately 2.5×10^5 AGS cells were treated for 4 days with DMSO alone (no drug treatment) or 10 μM compound I-1 in DMSO. Cells were lysed and RNA was extracted using Zymo's Quick RNA-Microprep following manufacturer instructions. 100 ng of RNA were reverse transcribed using MuLV reverse transcriptase (New England Biolabs, USA). qPCR was performed using 2 ul of cDNA and Luna Universal qPCR Master Mix from NEB in a Stratagene Mx3005P.
# AGS gastric cancer cells were treated with either DMSO alone (no drug treatment) or compound I-1 at […] for 4 days. RNA was isolated and oct4 RNA levels were measured by RT-qPCR.
# [2] = system: nanog; test: RT-qPCR of nanog RNA in AGS cells; assay type: cell-based, human; conditions: 10 μM, 4 days, FIG. 3
# Description: as §1
# AGS gastric cancer cells were treated with either DMSO alone (no drug treatment) or 10 µM of compound I-1 for 4 days. RNA was isolated and nanog RNA levels were measured by RT-qPCR.
# [3] = system: NCI-H520; test: Growth inhibition of additional cancer cell lines; assay type: cell-based; conditions: Homo sapiens; NCI-H520, NSCLC; 50% inhibition of growth
# Source text: (§2) We tested the ability of compound I-1 to inhibit the growth of 11 additional cell lines, derived from a variety of different types of human cancer.
# [4] = system: Ramos (RA 1); test: Growth inhibition of additional cancer cell lines; assay type: cell-based; conditions: Homo sapiens, Hematopoietic-Burkitt's B-cell lymphoma, 50% inhibition of growth
# Source text: as §2
# [5] = system: SR; test: Growth inhibition of additional cancer cell lines; assay type: cell-based; conditions: Homo sapiens, Heme (large cell immunoblastic lymphoma-unknown B or T cell origin), 50% inhibition of growth
# Source text: as §2
# [6] = system: HepG2; test: Growth inhibition of additional cancer cell lines; assay type: cell-based; conditions: Homo sapiens; HepG2, Liver; 50% inhibition of growth
# Source text: as §2
# [7] = system: MM.1R; test: Growth inhibition of additional cancer cell lines; assay type: cell-based; conditions: Homo sapiens, Hematopoietic-B-cell myeloma, 50% inhibition of growth
# Source text: as §2
# [8] = system: SU-DHL-10; test: Growth inhibition of additional cancer cell lines; assay type: cell-based; conditions: Homo sapiens, SU-DHL10; SU-DHL-10, Hematopoietic-large B-cell lymphoma; 50% inhibition of growth
# Source text: as §2
# [9] = system: SW620; test: Growth inhibition of additional cancer cell lines; assay type: cell-based; conditions: Homo sapiens, SW-620; SW620, Colon; 50% inhibition of growth
# Source text: as §2
# [10] = system: RL95-2; test: Growth inhibition of additional cancer cell lines; assay type: cell-based; conditions: Homo sapiens; RL95-2, Uterus/endometrium; 50% inhibition of growth
# Source text: as §2
# [11] = system: Thp1; test: Growth inhibition of additional cancer cell lines; assay type: cell-based; conditions: Homo sapiens, THP-1; Thp1, Heme (acute monocytic leukemia); 50% inhibition of growth
# Source text: as §2
# [12] = system: NALM-6; test: Growth inhibition of additional cancer cell lines; assay type: cell-based; conditions: Homo sapiens; NALM-6, Heme (B-cell precursor leukemia, ALL); 50% inhibition of growth
# Source text: as §2
# [13] = system: Raji; test: Growth inhibition of additional cancer cell lines; assay type: cell-based; conditions: Homo sapiens, Heme (Burkitt's lymphoma), 50% inhibition of growth
# Source text: as §2
# [14] = Pharmacokinetic profile after oral gavage in mice; assay type: in vivo; conditions: male, CD1, mouse, single PO 100 mg/kg, plasma over 24 hours
# Description: The pharmacokinetic profile of compound I-1 was determined after oral gavage of 100 mg/kg in male CD1 mice (n=3), using freshly prepared formulations. Approximately 0.025 mL of blood were collected from the dorsal metatarsal vein at 15 min, 30 min, and 1, 2, 4, 6, 8, and 24 hr post dosing. Plasma concentrations of the drug were analyzed by LC/MS/MS method.
# Following a single PO (oral) injection in mice at 100 mg/kg, the concentration of compound I-1 was measured in the plasma over 24 hours. The half life was approximately 6 hours.
# [15] = system: NCI-H69; test: Growth inhibition of cancer cell lines; assay type: cell-based; conditions: Homo sapiens; NCI-H69, small cell lung cancer; 50% inhibition of growth
# Source text: (§3) We tested the ability of compound I-1 to inhibit the growth of 12 additional cell lines, derived from a variety of different types of human cancer.
# [16] = system: GIST T1; test: Growth inhibition of cancer cell lines; assay type: cell-based; conditions: Homo sapiens, GISTT1; GIST T1, gastrointestinal stromal tumor; 50% inhibition of growth
# Source text: as §3
# [17] = system: A498; test: Growth inhibition of cancer cell lines; assay type: cell-based; conditions: Homo sapiens; A498, kidney carcinoma; 50% inhibition of growth
# Source text: as §3
# [18] = system: MCF-7; test: Growth inhibition of cancer cell lines; assay type: cell-based; conditions: Homo sapiens, MCF7; MCF-7, breast cancer; 50% inhibition of growth
# Source text: as §3
# [19] = system: PC-3; test: Growth inhibition of cancer cell lines; assay type: cell-based; conditions: Homo sapiens; PC-3, prostate adenocarcinoma; 50% inhibition of growth
# Source text: as §3
# [20] = system: UACC-62; test: Growth inhibition of cancer cell lines; assay type: cell-based; conditions: Homo sapiens; UACC-62, melanoma; 50% inhibition of growth
# Source text: as §3
# [21] = system: MiaPaca-2; test: Growth inhibition of cancer cell lines; assay type: cell-based; conditions: Homo sapiens, MIA PaCa-2; MiaPaca-2, pancreatic carcinoma; 50% inhibition of growth
# Source text: as §3
# [22] = system: A549; test: Growth inhibition of cancer cell lines; assay type: cell-based; conditions: Homo sapiens; A549, lung adenocarcinoma; 50% inhibition of growth
# Source text: as §3
# [23] = system: DLD-1; test: Growth inhibition of cancer cell lines; assay type: cell-based; conditions: Homo sapiens; DLD-1, Dukes' type C, colorectal adenocarcinoma; 50% inhibition of growth
# Source text: as §3
# [24] = system: IGROV-1; test: Growth inhibition of cancer cell lines; assay type: cell-based; conditions: Homo sapiens; IGROV-1, ovarian adenocarcinoma; 50% inhibition of growth
# Source text: as §3
# [25] = system: RL; test: Growth inhibition of cancer cell lines; assay type: cell-based; conditions: Homo sapiens, non-Hodgkin's lymphoma, 50% inhibition of growth
# Source text: as §3
# [26] = system: CFPAC-1; test: Growth inhibition of cancer cell lines; assay type: cell-based; conditions: Homo sapiens; CFPAC-1, pancreatic adenocarcinoma; 50% inhibition of growth
# Source text: as §3
# [27] = system: Colo205; test: Growth inhibition of cancer cell lines; assay type: cell-based; conditions: Homo sapiens, COLO 205; Colo205, Dukes' type D, colorectal adenocarcinoma; 50% inhibition of growth
# Source text: as §3
smiles,measurement,setting,value
CCC(=O)N1CCc2cc(-c3ccc(C(=O)NCc4cccnc4)cc3)ccc21 [Compound I-1],oct4 expression in gastric cancer cells,[1],decreased
same,nanog expression in gastric cancer cells,[2],decreased
same,IC50,[3],3.66 µM
same,IC50,[4],3.41 µM
same,IC50,[5],0.489 µM
same,IC50,[6],4.02 µM
same,IC50,[7],5.44 µM
same,IC50,[8],2.61 µM
same,IC50,[9],2.79 µM
same,IC50,[10],2.5 µM
same,IC50,[11],5.17 µM
same,IC50,[12],0.675 µM
same,IC50,[13],2.52 µM
same,half-life,[14],~6 h
same,IC50,[15],1.5 µM
same,IC50,[16],0.98 µM
same,IC50,[17],> 10 µM
same,IC50,[18],6 µM
same,IC50,[19],5.52 µM
same,IC50,[20],> 10 µM
same,IC50,[21],3.38 µM
same,IC50,[22],> 10 µM
same,IC50,[23],> 10 µM
same,IC50,[24],4.54 µM
same,IC50,[25],0.13 µM
same,IC50,[26],8.24 µM
same,IC50,[27],> 10 µM
